From ChEMBL document CHEMBL1140148, “Structure-activity studies on a series of a 2-aminopyrimidine-containing histamine H4 receptor ligands” (J Med Chem, 2008)

Columns and labels:
[1] = biological target: T1, Histamine H4 receptor (Rattus norvegicus, UniProt Q91ZY1); assay: (§1) Agonist activity at rat histamine H4 receptor expressed in HEK293 cells coexpressing Gqi5 protein assessed as calcium flux by FLIPR assay; type: functional, cell-based
[2] = biological target: Histamine H4 receptor (Rattus norvegicus) (UniProt Q91ZY1); assay: Agonist activity at rat histamine H4 receptor expressed in HEK293 cells coexpressing Gqi5 protein assessed as calcium flux by FLIPR assay relative to histamine; type: functional, cell-based
Histamine H4 receptor (Rattus norvegicus), sequence (Q91ZY1 whole entry): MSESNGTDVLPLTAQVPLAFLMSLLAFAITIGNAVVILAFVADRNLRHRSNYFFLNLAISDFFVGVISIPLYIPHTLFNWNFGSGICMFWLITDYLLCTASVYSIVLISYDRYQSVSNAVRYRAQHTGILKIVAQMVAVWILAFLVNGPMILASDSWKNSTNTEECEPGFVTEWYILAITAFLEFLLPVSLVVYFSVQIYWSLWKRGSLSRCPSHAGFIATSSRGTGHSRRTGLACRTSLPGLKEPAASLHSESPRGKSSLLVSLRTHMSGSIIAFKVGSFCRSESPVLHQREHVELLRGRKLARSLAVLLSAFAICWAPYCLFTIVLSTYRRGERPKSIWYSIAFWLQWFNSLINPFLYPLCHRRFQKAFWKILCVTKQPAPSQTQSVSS

[3] = biological target: T2, Histamine H4 receptor (Homo sapiens, UniProt Q9H3N8); assay: Agonist activity at human histamine H4 receptor expressed in HEK293 cells coexpressing Gqi5 protein assessed as calcium flux by FLIPR assay relative to histamine; type: functional, cell-based
[4] = biological target: T2, Histamine H4 receptor; assay: Agonist activity at human histamine H4 receptor expressed in HEK293 cells coexpressing Gqi5 protein assessed as calcium flux by FLIPR assay; type: functional, cell-based
[5] = biological target: Histamine H4 receptor (Rattus norvegicus) (UniProt Q91ZY1); assay: as §1; type: functional, cell-based
[6] = test system: Brain; assay: Drug level in rat brain assessed as metabolism to 4-(2-amino-6-(piperazin-1-yl)pyrimidin-4-yl)benzonitrile at 30 umol/kg, ip; type: ADME, organism-based; details: in vivo
[7] = biological target: Histamine H4 receptor (Mus musculus, UniProt Q91ZY2); assay: Agonist activity at mouse histamine H4 receptor expressed in HEK293 cells coexpressing Gqi5 protein assessed as calcium flux by FLIPR assay; type: functional, cell-based
Histamine H4 receptor (Mus musculus, UniProt Q91ZY2), sequence (Q91ZY2 whole entry): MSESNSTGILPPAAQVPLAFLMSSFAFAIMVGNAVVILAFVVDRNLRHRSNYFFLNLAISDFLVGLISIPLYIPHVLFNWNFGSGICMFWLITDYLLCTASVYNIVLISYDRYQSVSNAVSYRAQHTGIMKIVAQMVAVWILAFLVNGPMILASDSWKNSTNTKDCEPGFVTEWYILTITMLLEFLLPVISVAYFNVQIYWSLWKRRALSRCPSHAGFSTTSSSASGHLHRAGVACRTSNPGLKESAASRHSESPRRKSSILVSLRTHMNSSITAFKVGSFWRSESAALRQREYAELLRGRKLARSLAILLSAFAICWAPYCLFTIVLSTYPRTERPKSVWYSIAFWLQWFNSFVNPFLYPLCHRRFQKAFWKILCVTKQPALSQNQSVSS

[8] = biological target: T2, Histamine H4 receptor; assay: Displacement of [3H]histamine from human histamine H4 receptor expressed in HEK293 cells; type: cell-based
[9] = biological target: T1, Histamine H4 receptor; assay: Displacement of [3H]histamine from rat histamine H4 receptor expressed in HEK293 cells; type: cell-based
[10] = biological target: Histamine H3 receptor (Homo sapiens, UniProt Q9Y5N1); assay: Binding affinity to human histamine H3 receptor
Histamine H3 receptor (Homo sapiens, UniProt Q9Y5N1), sequence (Q9Y5N1 whole entry): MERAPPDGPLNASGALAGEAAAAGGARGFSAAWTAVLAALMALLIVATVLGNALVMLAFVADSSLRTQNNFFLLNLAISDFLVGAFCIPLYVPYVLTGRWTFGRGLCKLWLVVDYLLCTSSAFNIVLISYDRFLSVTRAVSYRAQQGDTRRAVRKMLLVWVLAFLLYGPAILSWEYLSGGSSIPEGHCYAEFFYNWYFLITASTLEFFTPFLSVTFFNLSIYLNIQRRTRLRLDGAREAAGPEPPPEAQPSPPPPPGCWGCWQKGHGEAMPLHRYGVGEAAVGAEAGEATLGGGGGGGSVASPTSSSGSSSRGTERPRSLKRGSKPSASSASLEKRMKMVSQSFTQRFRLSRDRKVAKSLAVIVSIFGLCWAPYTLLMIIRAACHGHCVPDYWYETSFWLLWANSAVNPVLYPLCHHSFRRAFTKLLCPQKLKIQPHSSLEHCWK

[11] = biological target: Histamine H3 receptor (Rattus norvegicus, UniProt Q9QYN8); assay: Binding affinity to rat histamine H3 receptor
Histamine H3 receptor (Rattus norvegicus, UniProt Q9QYN8), sequence (Q9QYN8 whole entry): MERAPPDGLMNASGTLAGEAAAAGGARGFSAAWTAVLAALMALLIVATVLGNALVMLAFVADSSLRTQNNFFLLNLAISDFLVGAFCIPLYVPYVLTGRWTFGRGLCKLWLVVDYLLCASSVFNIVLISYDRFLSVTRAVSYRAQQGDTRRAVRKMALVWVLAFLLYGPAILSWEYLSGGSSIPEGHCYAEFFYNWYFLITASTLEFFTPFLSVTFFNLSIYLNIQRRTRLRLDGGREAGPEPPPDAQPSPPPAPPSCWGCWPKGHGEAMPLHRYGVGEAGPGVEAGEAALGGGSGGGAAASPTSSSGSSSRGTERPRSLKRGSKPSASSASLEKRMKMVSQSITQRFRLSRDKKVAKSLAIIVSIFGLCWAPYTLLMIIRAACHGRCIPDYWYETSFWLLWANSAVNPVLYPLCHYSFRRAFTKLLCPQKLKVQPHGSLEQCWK

[12] = biological target: T2, Histamine H4 receptor; details: HEK293
[13] = biological target: Histamine H4 receptor (Rattus norvegicus) (UniProt Q91ZY1); details: HEK293

T1 sequence (Q91ZY1 whole entry): as the sequence (Q91ZY1 whole entry) above

EC50 [1] [nM]	Efficacy [2] [%]	Efficacy [3] [%]	EC50 [4] [nM]	Structure (SMILES)	also measured
14100	33	27	3890	CN1CCN(c2cc(-n3ccccc3=O)nc(N)n2)CC1	–
–	–	82	178	CN1CCN(c2cc(-n3cnc4ccccc43)nc(N)n2)CC1	pKb [13]: 6.46

Further lines, the compound ahead of its results:

Structure (SMILES)	EC50 [1] [nM]	Efficacy [2] [%]	Efficacy [3] [%]	EC50 [4] [nM]	also measured
CN1CCN(c2ccnc(N)n2)CC1	115	87	42	43.7	–
CN1CCN(c2cc(-c3ccc(C#N)cc3)cc(N)n2)CC1	–	–	56	2340	pKb [5]: 5.39
N#Cc1ccc(-c2cc(N3CCNCC3)nc(N)n2)cc1	245	67	–	–	Drug uptake [6]: 610 ng/mL; EC50 [7]: 102 nM; Ki [8]: 41.7 nM; Ki [9]: 339 nM; Ki [10]: 933 nM; Ki [11]: 120 nM; pKb [12]: 8.08
CN1CCN(c2cc(-c3c[nH]cn3)nc(N)n2)CC1	389	77	41	16.2	–
